Measured values: patent publication US20240025883A1, “PYRIMIDIN-2-YL SULFONAMIDE DERIVATIVES” (Hoffmann-La Roche Inc., priority 2021, published 2024)

Target: human GPR17 short isoform (Homo sapiens (Human), UniProt Q13304)
Experiment: GPR17 cAMP assay (hGPR17 cAMP, antagonist mode against EC80 of MDL29,951)
Assay type: cell-based
Details: CHO-K1 cells stably expressing human GPR17 short isoform; EC80 of agonist MDL29,951; forskolin 15 μM
How it was run: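 cAMP was read by competitive TR-FRET after a 30 min room-temperature stimulation: antagonists plus EC80 MDL29,951 and 0.5 mM IBMX, followed 5 min later by 15 μM forskolin. Cells were CHO-K1 with stable human GPR17 short isoform in HBSS/HEPES/BSA, pH 7.4; percent activity versus reference antagonist fitted sigmoidally.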

human GPR17 short isoform, sequence (Q13304 29-367): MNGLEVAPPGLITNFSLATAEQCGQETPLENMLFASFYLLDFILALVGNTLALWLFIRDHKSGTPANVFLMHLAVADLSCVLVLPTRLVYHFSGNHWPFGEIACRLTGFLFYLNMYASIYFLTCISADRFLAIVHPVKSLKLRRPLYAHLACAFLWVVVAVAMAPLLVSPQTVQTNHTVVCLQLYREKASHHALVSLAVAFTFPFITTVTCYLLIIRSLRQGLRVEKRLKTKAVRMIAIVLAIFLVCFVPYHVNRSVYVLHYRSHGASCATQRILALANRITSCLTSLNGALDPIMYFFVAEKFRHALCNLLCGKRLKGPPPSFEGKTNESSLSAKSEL

Compound	IC50
COc1nc(NS(=O)(=O)c2c[nH]c3c4c(ccc23)COC4)nc(OC)c1CC(F)F [Example 229, N-[5-(2,2-difluoroethyl)-4,6-dimethoxy-pyrimidin-2-yl]-6,8-dihydro-1H-fur[3,4-g]indole-3-sulfonamide]	27 nM
COc1nc(NS(=O)(=O)c2c[nH]c3nc(Br)ccc23)ncc1OCCF [Example 230, 6-bromo-N-[5-(2-fluoroethoxy)-4-methoxy-pyrimidin-2-yl]-1H-pyrrolo[2,3-b]pyridine-3-sulfonamide]	41 nM
COc1nc(NS(=O)(=O)c2c[nH]c3nc(Br)ccc23)ncc1OC(F)(F)CF [Example 231, 6-bromo-N-[4-methoxy-5-(1,1,2-trifluoroethoxy)pyrimidin-2-yl]-1H-pyrrolo[2,3-b]pyridine-3-sulfonamide]	21 nM
COc1nc(NS(=O)(=O)c2c[nH]c3c(CC#N)c(Cl)ccc23)ncc1CC(F)F [Example 232, 6-chloro-7-(cyanomethyl)-N-[5-(2,2-difluoroethyl)-4-methoxy-pyrimidin-2-yl]-1H-indole-3-sulfonamide]	35 nM
COc1nc(NS(=O)(=O)c2c[nH]c3c(C4CC4)c(Cl)ccc23)ncc1CC(F)F [Example 233, 6-chloro-7-cyclopropyl-N-[5-(2,2-difluoroethyl)-4-methoxy-pyrimidin-2-yl]-1H-indole-3-sulfonamide]	202 nM
COc1nc(NS(=O)(=O)c2c[nH]c3c(SC)c(Cl)ccc23)ncc1CC(F)F [Example 234, 6-chloro-N-[5-(2,2-difluoroethyl)-4-methoxy-pyrimidin-2-yl]-7-(methylthio)-1H-indole-3-sulfonamide]	16 nM
COc1nc(NS(=O)(=O)c2c[nH]c3cc(C(F)F)ccc23)ncc1OCCF [Example 235, 6-(difluoromethyl)-N-[5-(2-fluoroethoxy)-4-methoxy-pyrimidin-2-yl]-1H-indole-3-sulfonamide]	32 nM
COc1nc(NS(=O)(=O)c2c[nH]c3cc(C(F)F)ccc23)nc(OC)c1CC(F)F [Example 236, N-[5-(2,2-difluoroethyl)-4,6-dimethoxy-pyrimidin-2-yl]-6-(difluoromethyl)-1H-indole-3-sulfonamide]	14 nM
COc1nc(NS(=O)(=O)c2c[nH]c3cc(C(F)F)ccc23)nc(OC)c1OCC#N [Example 237, N-[5-(cyanomethoxy)-4,6-dimethoxy-pyrimidin-2-yl]-6-(difluoromethyl)-1H-indole-3-sulfonamide]	34 nM
COc1nc(NS(=O)(=O)c2c[nH]c3nc(C(F)F)ccc23)ncc1OC(F)(F)CF [Example 238, 6-(difluoromethyl)-N-[4-methoxy-5-(1,1,2-trifluoroethoxy)pyrimidin-2-yl]-1H-pyrrolo[2,3-b]pyridine-3-sulfonamide]	383 nM
COc1nc(NS(=O)(=O)c2c[nH]c3nc(C(F)F)ccc23)nc(OC)c1CCC#N [Example 239, N-[5-(2-cyanoethyl)-4,6-dimethoxy-pyrimidin-2-yl]-6-(difluoromethyl)-1H-pyrrolo[2,3-b]pyridine-3-sulfonamide]	46 nM
COc1nc(NS(=O)(=O)c2c[nH]c3c(F)c(Br)ccc23)ncc1CCC#N [Example 240, 6-bromo-N-[5-(2-cyanoethyl)-4-methoxy-pyrimidin-2-yl]-7-fluoro-1H-indole-3-sulfonamide]	48 nM
COc1nc(NS(=O)(=O)c2c[nH]c3c(F)c(Br)ccc23)nc(OC)c1OC(F)F [Example 241, 6-bromo-N-[5-(difluoromethoxy)-4,6-dimethoxy-pyrimidin-2-yl]-7-fluoro-1H-indole-3-sulfonamide]	21 nM
COc1nc(NS(=O)(=O)c2c[nH]c3c(F)c(Br)ccc23)nc(OC)c1OCC(F)F [Example 242, 6-bromo-N-[5-(2,2-difluoroethoxy)-4,6-dimethoxy-pyrimidin-2-yl]-7-fluoro-1H-indole-3-sulfonamide]	43 nM
COc1nc(NS(=O)(=O)c2c[nH]c3c(F)c(Br)ccc23)nc(OC)c1CCC#N [Example 243, 6-bromo-N-[5-(2-cyanoethyl)-4,6-dimethoxy-pyrimidin-2-yl]-7-fluoro-1H-indole-3-sulfonamide]	9 nM
COc1nc(NS(=O)(=O)c2c[nH]c3c(F)c(Br)ccc23)nc(OC)c1OCC#N [Example 244, 6-bromo-N-[5-(cyanomethoxy)-4,6-dimethoxy-pyrimidin-2-yl]-7-fluoro-1H-indole-3-sulfonamide]	16 nM
COc1nc(NS(=O)(=O)c2c[nH]c3cc(Br)ccc23)nc(OC)c1CC(F)F [Example 245, 6-bromo-N-[5-(2,2-difluoroethyl)-4,6-dimethoxy-pyrimidin-2-yl]-1H-indole-3-sulfonamide]	27 nM
COc1nc(NS(=O)(=O)c2c[nH]c3cc(Br)ccc23)nc(OC)c1OCC#N [Example 246, 6-bromo-N-[5-(cyanomethoxy)-4,6-dimethoxy-pyrimidin-2-yl]-1H-indole-3-sulfonamide]	19 nM
COc1nc(NS(=O)(=O)c2c[nH]c3c(F)c(C(F)F)ccc23)ncc1OCCF [Example 247, 6-(difluoromethyl)-7-fluoro-N-[5-(2-fluoroethoxy)-4-methoxy-pyrimidin-2-yl]-1H-indole-3-sulfonamide]	42 nM

Compound	IC50
COc1nc(NS(=O)(=O)c2c[nH]c3c(F)c(C(F)F)ccc23)ncc1CC(F)F [Example 248, N-[5-(2,2-difluoroethyl)-4-methoxy-pyrimidin-2-yl]-6-(difluoromethyl)-7-fluoro-1H-indole-3-sulfonamide]	367 nM
COc1nc(NS(=O)(=O)c2c[nH]c3c(F)c(C(F)F)ccc23)nc(OC)c1OC(F)F [Example 249, N-[5-(difluoromethoxy)-4,6-dimethoxy-pyrimidin-2-yl]-6-(difluoromethyl)-7-fluoro-1H-indole-3-sulfonamide]	36 nM
COc1nc(NS(=O)(=O)c2c[nH]c3c(F)c(C(F)F)ccc23)nc(OC)c1OCC(F)F [Example 250, N-[5-(2,2-difluoroethoxy)-4,6-dimethoxy-pyrimidin-2-yl]-6-(difluoromethyl)-7-fluoro-1H-indole-3-sulfonamide]	35 nM
COc1nc(NS(=O)(=O)c2c[nH]c3c(F)c(C(F)F)ccc23)nc(OC)c1CC(F)F [Example 251, N-[5-(2,2-difluoroethyl)-4,6-dimethoxy-pyrimidin-2-yl]-6-(difluoromethyl)-7-fluoro-1H-indole-3-sulfonamide]	22 nM
COc1nc(NS(=O)(=O)c2c[nH]c3c(F)c(C(F)F)ccc23)nc(OC)c1CCC#N [Example 252, N-[5-(2-cyanoethyl)-4,6-dimethoxy-pyrimidin-2-yl]-6-(difluoromethyl)-7-fluoro-1H-indole-3-sulfonamide]	14 nM
COc1nc(NS(=O)(=O)c2c[nH]c3c(F)c(C(F)F)ccc23)nc(OC)c1OCC#N [Example 253, N-[5-(cyanomethoxy)-4,6-dimethoxy-pyrimidin-2-yl]-6-(difluoromethyl)-7-fluoro-1H-indole-3-sulfonamide]	20 nM
COc1nc(NS(=O)(=O)c2c[nH]c3cc(C4CC4)ccc23)ncc1CC(F)F [Example 254, 6-cyclopropyl-N-[5-(2,2-difluoroethyl)-4-methoxy-pyrimidin-2-yl]-1H-indole-3-sulfonamide]	75 nM
COc1nc(NS(=O)(=O)c2c[nH]c3c(Br)c(Cl)ccc23)ncc1CCC#N [Example 255, 7-bromo-6-chloro-N-[5-(2-cyanoethyl)-4-methoxy-pyrimidin-2-yl]-1H-indole-3-sulfonamide]	38 nM
COc1nc(NS(=O)(=O)c2c[nH]c3cc(F)ccc23)nc(OC)c1OC(F)F [Example 256, N-[5-(difluoromethoxy)-4,6-dimethoxy-pyrimidin-2-yl]-6-fluoro-1H-indole-3-sulfonamide]	215 nM
COc1nc(NS(=O)(=O)c2c[nH]c3cc(F)ccc23)nc(OC)c1OCC(F)F [Example 257, N-[5-(2,2-difluoroethoxy)-4,6-dimethoxy-pyrimidin-2-yl]-6-fluoro-1H-indole-3-sulfonamide]	84 nM
COc1nc(NS(=O)(=O)c2c[nH]c3cc(F)ccc23)nc(OC)c1CC(F)F [Example 258, N-[5-(2,2-difluoroethyl)-4,6-dimethoxy-pyrimidin-2-yl]-6-fluoro-1H-indole-3-sulfonamide]	37 nM
COc1nc(NS(=O)(=O)c2c[nH]c3cc(F)ccc23)nc(OC)c1CCC#N [Example 259, N-[5-(2-cyanoethyl)-4,6-dimethoxy-pyrimidin-2-yl]-6-fluoro-1H-indole-3-sulfonamide]	25 nM
COc1nc(NS(=O)(=O)c2c[nH]c3cc(Cl)ccc23)ncc1CC(C)(F)F [Example 260, 6-chloro-N-[5-(2,2-difluoropropyl)-4-methoxy-pyrimidin-2-yl]-1H-indole-3-sulfonamide]	488 nM
COc1nc(NS(=O)(=O)c2c[nH]c3cc(Cl)ccc23)ncc1CC(F)(F)C(F)F [Example 261, 6-chloro-N-[4-methoxy-5-(2,2,3,3-tetrafluoropropyl)pyrimidin-2-yl]-1H-indole-3-sulfonamide]	91 nM
COc1nc(NS(=O)(=O)c2c[nH]c3cc(Cl)ccc23)ncc1COC(F)F [Example 262, 6-chloro-N-[5-(difluoromethoxymethyl)-4-methoxy-pyrimidin-2-yl]-1H-indole-3-sulfonamide]	40 nM
COc1nc(NS(=O)(=O)c2c[nH]c3cc(Cl)ccc23)nc(OC)c1OCC1COC1 [Example 263, 6-chloro-N-[4,6-dimethoxy-5-(oxetan-3-ylmethoxy)pyrimidin-2-yl]-1H-indole-3-sulfonamide]	2060 nM
COc1nc(NS(=O)(=O)c2c[nH]c3cc(Cl)ccc23)nc(OC)c1CC(F)CF (stereo not shown) [Example 264, 6-chloro-N-[5-(2,3-difluoropropyl)-4,6-dimethoxy-pyrimidin-2-yl]-1H-indole-3-sulfonamide]	23 nM
COc1nc(NS(=O)(=O)c2c[nH]c3cc(Cl)ccc23)nc(OC)c1OCC#N [Example 265, 6-chloro-N-[5-(cyanomethoxy)-4,6-dimethoxy-pyrimidin-2-yl]-1H-indole-3-sulfonamide]	14 nM
